Legend:
Assay in all cases: relative viability (nuclei count vs DMSO), 5 days (fraction); higher = more cells survive
Cediranib + OSI-027 = compound: COc1cc2c(Oc3ccc4[nH]c(C)cc4c3F)ncnc2cc1OCCCN1CCCC1 [Cediranib] + COc1cccc2cc(-c3nc([C@H]4CC[C@H](C(=O)O)CC4)n4ncnc(N)c34)[nH]c12 [OSI-027] (partner 0.5 µM)
Procedure, shortened: (§1)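 A single step with final 0.05% Triton X-100, 1% formaldehyde and 1 ug/ml Hoechst fixed the cells and stained nuclei 5 days after treatment. Lung cancer cell lines in 1536-well plates had been treated by pin tool the day after seeding with one drug alone or a fixed anchor-drug dose plus five library-drug doses (not always all listed) in √10 steps, and nuclei were counted on 4× images. Relative viability is the ratio of nuclei in treated wells to nuclei in vehicle wells, taken as the median of duplicate plates.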

Decitabine + Foretinib = compound: Nc1ncn([C@H]2C[C@H](O)[C@@H](CO)O2)c(=O)n1 [Decitabine] + COc1cc2c(Oc3ccc(NC(=O)C4(C(=O)Nc5ccc(F)cc5)CC4)cc3F)ccnc2cc1OCCCN1CCOCC1 [Foretinib] (partner 0.25 µM)
Procedure, shortened: as §1

Decitabine + Vorinostat = compound: Nc1ncn([C@H]2C[C@H](O)[C@@H](CO)O2)c(=O)n1 [Decitabine] + O=C(CCCCCCC(=O)Nc1ccccc1)NO [Vorinostat] (partner 1 µM)
Procedure, shortened: as §1

[1] = compound: O=C(C[C@H]1NCCC[C@@H]1O)Cn1cnc2cc(Br)c(Cl)cc2c1=O (racemic) [Halofuginone] + Nc1ncn([C@H]2C[C@H](O)[C@@H](CO)O2)c(=O)n1 [Decitabine] (partner 2 µM)
Procedure, shortened: as §1

| Cell Line | relative viability (Cediranib + OSI-027; first compound 0.04 µM) | relative viability (Cediranib + OSI-027; first compound 0.1265 µM) | relative viability (Cediranib + OSI-027; first compound 0.4 µM) | relative viability (Cediranib + OSI-027; first compound 1.265 µM) | relative viability (Cediranib + OSI-027; first compound 4 µM) | relative viability (Decitabine + Foretinib; first compound 0.04 µM) | relative viability (Decitabine + Foretinib; first compound 0.1265 µM) | relative viability (Decitabine + Foretinib; first compound 0.4 µM) | relative viability (Decitabine + Foretinib; first compound 1.265 µM) | relative viability (Decitabine + Foretinib; first compound 4 µM) | relative viability (Decitabine + Vorinostat; first compound 0.04 µM) | relative viability (Decitabine + Vorinostat; first compound 0.1265 µM) | relative viability (Decitabine + Vorinostat; first compound 0.4 µM) | relative viability (Decitabine + Vorinostat; first compound 1.265 µM) | relative viability (Decitabine + Vorinostat; first compound 4 µM) | relative viability ([1]; first compound 0.001 µM) | relative viability ([1]; first compound 0.003162 µM) | relative viability ([1]; first compound 0.01 µM) | relative viability ([1]; first compound 0.03162 µM) | relative viability ([1]; first compound 0.1 µM) |
| --- | --- | --- | --- | --- | --- | --- | --- | --- | --- | --- | --- | --- | --- | --- | --- | --- | --- | --- | --- | --- |
| NCI-H358 | 0.812 | 0.967 | 0.683 | 0.609 | 0.845 | 0.53 | 0.406 | 0.274 | 0.142 | 0.136 | 0.257 | 0.209 | 0.14 | 0.0806 | 0.0904 | 0.227 | 0.239 | 0.2 | 0.135 | 0.119 |
| NCI-H441 | 0.809 | – | 0.658 | 0.675 | 0.632 | 0.396 | 0.401 | 0.347 | 0.25 | 0.325 | 0.211 | 0.281 | 0.249 | 0.169 | 0.181 | 0.29 | 0.262 | 0.262 | 0.275 | 0.234 |
| NCI-H460 | 0.852 | 0.684 | 0.573 | 0.605 | 0.613 | 0.948 | 0.816 | 0.619 | 0.43 | 0.193 | 0.669 | 0.64 | 0.293 | 0.214 | 0.0759 | 0.47 | 0.509 | 0.518 | 0.501 | 0.0841 |
| NCI-H520 | 0.403 | 0.239 | 0.211 | 0.202 | 0.226 | 0.732 | 0.691 | 0.584 | 0.387 | 0.343 | 0.622 | 0.627 | 0.413 | 0.397 | 0.296 | 0.529 | 0.498 | 0.579 | 0.607 | 0.347 |
| NCI-H596 | 0.775 | 0.815 | 0.723 | – | 0.788 | 0.764 | 0.819 | – | 0.625 | 0.582 | 0.613 | 0.618 | 0.553 | 0.51 | 0.507 | 1.01 | 0.961 | 1.09 | 1.01 | 0.775 |
| NCI-H647 | 0.614 | 0.694 | 0.549 | 0.49 | 0.841 | 0.966 | 0.919 | 0.509 | 0.35 | 0.234 | 0.327 | 0.219 | 0.269 | 0.109 | 0.105 | 0.408 | 0.452 | 0.432 | 0.334 | 0.215 |
| NCI-H650 | 0.485 | 0.521 | 0.508 | 0.499 | 0.542 | 0.929 | 0.667 | 0.506 | 0.363 | 0.319 | 0.338 | 0.301 | 0.204 | 0.219 | 0.16 | 0.362 | 0.314 | 0.285 | 0.323 | 0.28 |
| NCI-H661 | 0.734 | 0.686 | 0.71 | 0.686 | 0.669 | 1.02 | 0.966 | 0.777 | 0.6 | 0.554 | 0.806 | 0.602 | 0.54 | 0.467 | 0.485 | 0.595 | 0.618 | 0.564 | 0.555 | 0.479 |

From the supplement of paper PMC10307832
